From US10118916B2, “Modulators of cystic fibrosis transmembrane conductance regulator protein” (AbbVie S.à.r.l., priority 2016, dated 2018)

Target: T1, F508delCFTR (Homo sapiens, UniProt P13569, DEL508-508)
T1 construct: expressed in transfected cells; host or cells: CFBE41o- (human lung derived epithelial cell line), doxycycline-inducible
Assay: Cell Surface Expression-Horse Radish Peroxidase (CSE-HRP) assay
Format: cell-based
Settings: CFBE41o-F508delCFTR-HRP cells; for EC50: F508delCFTR cell surface expression, luminescence, 18-24 hours at 33° C., highest concentration 20 μM; for Maximum % activity: maximum at any tested concentration, normalized to on-plate positive control (3 μM)
From the text: Cell Surface Expression-Horse Radish Peroxidase (CSE-HRP) Assay:
A cellular assay for measuring the F508delCFTR cell surface expression after correction with test compounds was developed in human lung derived epithelial cell line (CFBE41o-) (Veit G et al, (2012) Mol Biol Cell. 23(21): 4188-4202). This was achieved by expressing the F508delCFTR mutation along with a horseradish peroxidase (HRP) in the fourth exofacial loop and then measuring the HRP activity using luminescence readout from these cells, CFBE41o-F508delCFTR-HRP, that were incubated overnight with the test corrector compounds. Briefly, for this primary assay, the CFBE41o-F508delCFTR-HRP cells were plated in 384-well plates (Greiner Bio-one; Cat 781080) at 4,000 cells/well along with 0.5 μg/mL doxycycline to induce the F508delCFTR-HRP expression and further incubated at 37° C., 5% CO2 for 72 hours. The test compounds were then added at the required concentrations and further incubated for 18-24 hours at 33° C. The highest concentration tested was 20 μM with an 8-point concentration response curve using a 3-fold dilution. Three replicate plates were run to determine one EC50. All plates contained negative controls (dimethyl sulfoxide, DMSO) and positive controls (3 μM of 3-[(2R,4R)-4-({[1-(2,2-difluoro-1,3-benzodioxol-5-yl)cyclopropyl]carbonyl}amino)-7-methoxy-3,4-dihydro-2H-chromen-2-yl]benzoic acid) as well as on-plate concentration response of the positive control. Post incubation, the plates were washed 5× times with Dulbecco's phosphate buffered saline (DPBS), followed by the addition of the HRP substrate, luminol (50 μL), and measuring the HRP activity using luminescence readout on EnVision® Multilabel Plate Reader (Perkin Elmer; product number 2104-0010). The raw counts from the experiment are analyzed using Accelrys® Assay Explorer v3.3.
Z′ greater than 0.5 was used as passing quality control criteria for the plates.
The Z′ is defined as: 1−[3*SDPositive Control+3*SDNegative Control/Absolute(MeanPositive Control−MeanNegative Control)] wherein “SD” is standard deviation.
The % activity measured at each of the 8 test concentrations of the test compound was normalized to the on-plate positive control using the following formula: % activity=[(test compound response−DMSO response)/(positive control response−DMSO response)]*100
The maximum % activity achieved for the test compound at any tested concentration is presented in Table 1 along with the EC50 calculated using the following general sigmoidal curve with variable Hill slope equation (described as Model 42 in the Accelrys® Assay Explorer v3.3 software): y=(a−d)/(1+(x/c)^b)+d
General sigmoidal curve with concentration, response, top, bottom, EC50 and Hill slope.
This model describes a sigmoidal curve with an adjustable baseline, a. The equation can be used to fit curves where response is either increasing or decreasing with respect to the independent variable, “x”. • “x” is a concentration of drug under test. • “y” is the response. • “a” is the maximum response, and “d” is the minimum response • “c” is the inflection point (EC50) for the curve. That is, “y” is halfway between the lower and upper asymptotes when x=c. • “b” is the slope-factor or Hill coefficient. The sign of b is positive when the response increases with increasing dose and is negative when the response decreases with increasing dose (inhibition).

T1 sequence (P13569 with tags, fused parts or gaps DEL508-508): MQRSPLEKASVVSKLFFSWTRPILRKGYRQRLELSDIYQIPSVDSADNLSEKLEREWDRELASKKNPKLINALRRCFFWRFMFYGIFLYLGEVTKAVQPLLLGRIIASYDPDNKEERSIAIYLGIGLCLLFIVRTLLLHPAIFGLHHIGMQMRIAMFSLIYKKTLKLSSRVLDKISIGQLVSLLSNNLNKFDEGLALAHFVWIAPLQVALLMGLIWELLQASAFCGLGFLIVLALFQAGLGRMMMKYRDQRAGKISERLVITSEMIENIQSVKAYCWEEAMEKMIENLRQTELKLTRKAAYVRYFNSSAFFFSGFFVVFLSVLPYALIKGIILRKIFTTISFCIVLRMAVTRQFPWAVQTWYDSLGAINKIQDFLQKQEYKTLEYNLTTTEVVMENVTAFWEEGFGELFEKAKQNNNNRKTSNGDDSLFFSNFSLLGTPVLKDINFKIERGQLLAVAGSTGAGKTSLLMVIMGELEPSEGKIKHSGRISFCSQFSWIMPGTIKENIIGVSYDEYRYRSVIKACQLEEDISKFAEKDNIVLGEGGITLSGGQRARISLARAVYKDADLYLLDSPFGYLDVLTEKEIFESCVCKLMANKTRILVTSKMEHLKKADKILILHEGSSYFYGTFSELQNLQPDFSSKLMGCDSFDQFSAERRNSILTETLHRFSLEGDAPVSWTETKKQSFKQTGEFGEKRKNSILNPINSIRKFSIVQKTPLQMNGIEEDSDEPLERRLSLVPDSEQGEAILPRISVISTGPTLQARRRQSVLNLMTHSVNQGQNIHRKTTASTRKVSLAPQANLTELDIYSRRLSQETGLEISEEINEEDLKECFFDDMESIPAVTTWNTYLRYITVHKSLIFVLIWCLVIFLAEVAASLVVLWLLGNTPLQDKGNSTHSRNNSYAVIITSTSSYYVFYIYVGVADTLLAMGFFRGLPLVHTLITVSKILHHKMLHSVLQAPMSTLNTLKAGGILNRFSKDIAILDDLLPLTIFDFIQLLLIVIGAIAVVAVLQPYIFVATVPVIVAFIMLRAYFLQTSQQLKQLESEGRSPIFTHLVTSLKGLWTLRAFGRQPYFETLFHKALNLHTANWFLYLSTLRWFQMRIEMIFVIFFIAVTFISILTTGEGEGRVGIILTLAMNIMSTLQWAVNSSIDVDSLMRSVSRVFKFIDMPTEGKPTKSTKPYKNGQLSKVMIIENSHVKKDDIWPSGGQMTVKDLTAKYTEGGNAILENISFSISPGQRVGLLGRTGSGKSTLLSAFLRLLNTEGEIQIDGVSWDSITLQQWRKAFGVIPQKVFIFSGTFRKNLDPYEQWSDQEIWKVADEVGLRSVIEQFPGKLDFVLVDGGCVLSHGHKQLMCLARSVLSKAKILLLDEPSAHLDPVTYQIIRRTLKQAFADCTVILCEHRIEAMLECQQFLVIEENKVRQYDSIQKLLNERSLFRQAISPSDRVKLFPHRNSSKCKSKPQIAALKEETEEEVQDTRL

Row | Compound | EC50 [nM] | Maximum % activity [%]
1 | COc1ccc2c(c1)O[C@@H](c1cccc(C(=O)O)c1)C[C@H]2NC(=O)C1(c2ccc(Cl)cc2)CC1 [Example 42, 3-[(2R,4R)-4-{[1-(4-chlorophenyl)cyclopropane-1-carbonyl]amino}-7-methoxy-3,4-dihydro-2H-1-benzopyran-2-yl]benzoic acid] | 280 | 28.3
2 | COc1ccc2c(c1)O[C@@H](c1cccc(C(=O)O)c1)C[C@H]2NC(=O)C1(c2ccc(Br)cc2)CC1 [Example 43, 3-[(2R,4R)-4-{[1-(4-bromophenyl)cyclopropane-1-carbonyl]amino}-7-methoxy-3,4-dihydro-2H-1-benzopyran-2-yl]benzoic acid] | 280 | 39.1
3 | COc1cccc2c1[C@@](C)(C(=O)N[C@@H]1C[C@H](c3cccc(C(=O)O)c3)Oc3ccccc31)CC2 [Example 46, 3-[(2R,4R)-4-{[(1S)-7-methoxy-1-methyl-2,3-dihydro-1H-indene-1-carbonyl]amino}-3,4-dihydro-2H-1-benzopyran-2-yl]benzoic acid] | > 20000 | 1.1
4 | COc1ccc2c(c1)[C@@](C)(C(=O)N[C@@H]1C[C@H](c3cccc(C(=O)O)c3)Oc3ccccc31)CC2 [Example 47, 3-[(2R,4R)-4-{[(1S)-6-methoxy-1-methyl-2,3-dihydro-1H-indene-1-carbonyl]amino}-3,4-dihydro-2H-1-benzopyran-2-yl]benzoic acid] | 1060 | 38.2
5 | COc1cccc2c1[C@](C)(C(=O)N[C@@H]1C[C@H](c3cccc(C(=O)O)c3)Oc3ccccc31)CC2 [Example 50, 3-[(2R,4R)-4-{[(1R)-7-methoxy-1-methyl-2,3-dihydro-1H-indene-1-carbonyl]amino}-3,4-dihydro-2H-1-benzopyran-2-yl]benzoic acid] | > 20000 | 4.9
6 | CC(C)(C(=O)N[C@@H]1C[C@H](c2cccc(C(=O)O)c2)Oc2ccccc21)c1ccc(C(F)(F)F)cc1 [Example 51, 3-[(2R,4R)-4-{2-methyl-2-[4-(trifluoromethyl)phenyl]propanamido}-3,4-dihydro-2H-1-benzopyran-2-yl]benzoic acid] | 2030 | 57.9
7 | CC(C)(C(=O)N[C@@H]1C[C@H](c2cccc(C(=O)O)c2)Oc2ccccc21)c1ccc(Cl)cc1Cl [Example 52, 3-{(2R,4R)-4-[2-(2,4-dichlorophenyl)-2-methylpropanamido]-3,4-dihydro-2H-1-benzopyran-2-yl}benzoic acid] | > 20000 | 1.8
8 | C[C@@]1(C(=O)N[C@@H]2C[C@H](c3cccc(C(=O)O)c3)Oc3ccccc32)CCc2ccc(Cl)cc21 [Example 53, 3-[(2R,4R)-4-{[(1R)-6-chloro-1-methyl-2,3-dihydro-1H-indene-1-carbonyl]amino}-3,4-dihydro-2H-1-benzopyran-2-yl]benzoic acid] | > 20000 | 1.2
9 | C[C@]1(C(=O)N[C@@H]2C[C@H](c3cccc(C(=O)O)c3)Oc3ccccc32)CCc2ccc(Cl)cc21 [Example 54, 3-[(2R,4R)-4-{[(1S)-6-chloro-1-methyl-2,3-dihydro-1H-indene-1-carbonyl]amino}-3,4-dihydro-2H-1-benzopyran-2-yl]benzoic acid] | > 20000 | 10.4
10 | CC1(C(=O)N[C@@H]2C[C@H](c3cccc(C(=O)O)c3)Oc3ccccc32)CCc2cc(OC(F)(F)F)ccc21 (stereo partly drawn) [Example 55, 3-[(2R,4R)-4-{[1-methyl-5-(trifluoromethoxy)-2,3-dihydro-1H-indene-1-carbonyl]amino}-3,4-dihydro-2H-1-benzopyran-2-yl]benzoic acid] | 2710 | 49.9

Results, then the compound that gave them:

Row | EC50 [nM] | Maximum % activity [%] | Compound
11 | 100 | 35.3 | COc1ccc(C2(C(=O)N[C@@H]3C[C@H](c4cccc(C(=O)O)c4)Oc4cc(OC)ccc43)CC2)cc1 [Example 44, 3-[(2R,4R)-7-methoxy-4-{[1-(4-methoxyphenyl)cyclopropane-1-carbonyl]amino}-3,4-dihydro-2H-1-benzopyran-2-yl]benzoic acid]
12 | > 20000 | 15.3 | COc1ccc2c(c1)O[C@@H](c1cccc(C(=O)O)c1)C[C@H]2NC(=O)C(C)(C)Oc1ccc(Cl)cc1 [Example 45, 3-{(2R,4R)-4-[2-(4-chlorophenoxy)-2-methylpropanamido]-7-methoxy-3,4-dihydro-2H-1-benzopyran-2-yl}benzoic acid]
13 | > 20000 | 4.5 | COc1ccc2c(c1)[C@](C)(C(=O)N[C@@H]1C[C@H](c3cccc(C(=O)O)c3)Oc3ccccc31)CC2 [Example 48, 3-[(2R,4R)-4-{[(1R)-6-methoxy-1-methyl-2,3-dihydro-1H-indene-1-carbonyl]amino}-3,4-dihydro-2H-1-benzopyran-2-yl]benzoic acid]
14 | > 20000 | 3.5 | Cc1ccccc1C(C)(C)C(=O)N[C@@H]1C[C@H](c2cccc(C(=O)O)c2)Oc2ccccc21 [Example 49, 3-{(2R,4R)-4-[2-methyl-2-(2-methylphenyl)propanamido]-3,4-dihydro-2H-1-benzopyran-2-yl}benzoic acid]
15 | 1300 | 71.4 | COc1ccc2c(c1)OCC2(C)C(=O)N[C@@H]1C[C@H](c2cccc(C(=O)O)c2)Oc2ccccc21 (stereo partly drawn) [Example 56, 3-{(2R,4R)-4-[(6-methoxy-3-methyl-2,3-dihydro-1-benzofuran-3-carbonyl)amino]-3,4-dihydro-2H-1-benzopyran-2-yl}benzoic acid]
16 | > 20000 | 2.3 | COC(=O)c1cccc([C@H]2C[C@@H](NC(=O)C3(C)CCc4ccc(OC(F)(F)F)cc43)c3ccc(OC)cc3O2)c1 (stereo partly drawn) [Example 57, methyl 3-[(2R,4R)-7-methoxy-4-{[1-methyl-6-(trifluoromethoxy)-2,3-dihydro-1H-indene-1-carbonyl]amino}-3,4-dihydro-2H-1-benzopyran-2-yl]benzoate]
17 | 2220 | 20.4 | COc1ccc2c(c1)O[C@@H](c1cccc(C(=O)O)c1)C[C@H]2NC(=O)C1(C)CCc2ccc(OC(F)(F)F)cc21 (stereo partly drawn) [Example 58, 3-[(2R,4R)-7-methoxy-4-{[1-methyl-6-(trifluoromethoxy)-2,3-dihydro-1H-indene-1-carbonyl]amino}-3,4-dihydro-2H-1-benzopyran-2-yl]benzoic acid]
18 | > 20000 | 1.8 | COC(=O)c1ccc([C@H]2C[C@@H](NC(=O)[C@@]3(C)CCc4cc(Cl)ccc4O3)c3ccccc3O2)cc1 [Example 59, methyl 4-[(2R,4R)-4-{[(2R)-6-chloro-2-methyl-3,4-dihydro-2H-1-benzopyran-2-carbonyl]amino}-3,4-dihydro-2H-1-benzopyran-2-yl]benzoate]
19 | > 20000 | 2.3 | C[C@]1(C(=O)N[C@@H]2C[C@H](c3ccc(C(=O)O)cc3)Oc3ccccc32)CCc2cc(Cl)ccc2O1 [Example 60, 4-[(2R,4R)-4-{[(2R)-6-chloro-2-methyl-3,4-dihydro-2H-1-benzopyran-2-carbonyl]amino}-3,4-dihydro-2H-1-benzopyran-2-yl]benzoic acid]
20 | 5880 | 20.0 | COC(=O)c1ccc([C@H]2C[C@@H](NC(=O)[C@]3(C)CCc4cc(Cl)ccc4O3)c3ccccc3O2)cc1 [Example 61, methyl 4-[(2R,4R)-4-{[(2S)-6-chloro-2-methyl-3,4-dihydro-2H-1-benzopyran-2-carbonyl]amino}-3,4-dihydro-2H-1-benzopyran-2-yl]benzoate]
21 | 2650 | 22.6 | C[C@@]1(C(=O)N[C@@H]2C[C@H](c3ccc(C(=O)O)cc3)Oc3ccccc32)CCc2cc(Cl)ccc2O1 [Example 62, 4-[(2R,4R)-4-{[(2S)-6-chloro-2-methyl-3,4-dihydro-2H-1-benzopyran-2-carbonyl]amino}-3,4-dihydro-2H-1-benzopyran-2-yl]benzoic acid]
